Values after ≈ are worked out from the molar mass of the structure shown.
Assays:
Type in all cases: functional
[1] = test system: Enterococcus faecium; assay: Antibacterial activity against Enterococcus faecium 36711 assessed as inhibition of bacterial growth incubated for 18 hrs by broth microdilution method
[2] = test system: Enterococcus gallinarum; assay: Antibacterial activity against Enterococcus gallinarum 5F52C assessed as inhibition of bacterial growth incubated for 18 hrs by broth microdilution method
[3] = test system: Enterococcus faecium; assay: Antibacterial activity against Enterococcus faecium 35682 assessed as inhibition of bacterial growth incubated for 18 hrs by broth microdilution method
[4] = test system: Micrococcus luteus; assay: Antibacterial activity against Micrococcus luteus ML01 assessed as inhibition of bacterial growth incubated for 18 hrs by broth microdilution method
[5] = test system: Enterococcus faecium; assay: Antibacterial activity against Enterococcus faecium 36235 assessed as inhibition of bacterial growth incubated for 18 hrs by broth microdilution method
[6] = test system: Bacillus subtilis; assay: Antibacterial activity against Bacillus subtilis BS01 assessed as inhibition of bacterial growth incubated for 18 hrs by broth microdilution method
[7] = test system: Staphylococcus simulans; assay: Antibacterial activity against Staphylococcus simulans AKA1 assessed as inhibition of bacterial growth incubated for 18 hrs by broth microdilution method
[8] = test system: Enterococcus faecalis; assay: Antibacterial activity against Enterococcus faecalis ATCC 29212 assessed as inhibition of bacterial growth incubated for 18 hrs by broth microdilution method
[9] = test system: Enterococcus faecalis; assay: Antibacterial activity against Enterococcus faecalis 36950 assessed as inhibition of bacterial growth incubated for 18 hrs by broth microdilution method
[10] = test system: Staphylococcus aureus; assay: Antibacterial activity against Staphylococcus aureus 1862 assessed as inhibition of bacterial growth incubated for 18 hrs by broth microdilution method
[11] = test system: Staphylococcus aureus; assay: Antibacterial activity against Staphylococcus aureus GDE4P037P assessed as inhibition of bacterial growth incubated for 18 hrs by broth microdilution method
[12] = test system: Staphylococcus aureus; assay: Antibacterial activity against Staphylococcus aureus ATCC 29213 assessed as inhibition of bacterial growth incubated for 18 hrs by broth microdilution method
[13] = test system: Staphylococcus aureus; assay: Antibacterial activity against Staphylococcus aureus 669 assessed as inhibition of bacterial growth incubated for 18 hrs by broth microdilution method
[14] = test system: Staphylococcus aureus; assay: Antibacterial activity against Staphylococcus aureus 16339 assessed as inhibition of bacterial growth incubated for 18 hrs by broth microdilution method
[15] = test system: Staphylococcus aureus; assay: Antibacterial activity against methicillin-resistant Staphylococcus aureus assessed as inhibition of bacterial growth incubated for 18 hrs by broth microdilution method
[16] = test system: Staphylococcus aureus; assay: Antibacterial activity against Staphylococcus aureus 3090 assessed as inhibition of bacterial growth incubated for 18 hrs by broth microdilution method
[17] = test system: Staphylococcus aureus; assay: Antibacterial activity against Staphylococcus aureus 718306 assessed as inhibition of bacterial growth incubated for 18 hrs by broth microdilution method
[18] = test system: Staphylococcus aureus; assay: Antibacterial activity against Staphylococcus aureus 16162 assessed as inhibition of bacterial growth incubated for 18 hrs by broth microdilution method
[19] = test system: Staphylococcus aureus; assay: Antibacterial activity against Staphylococcus aureus 745324 assessed as inhibition of bacterial growth incubated for 18 hrs by broth microdilution method
[20] = test system: Staphylococcus aureus; assay: Antibacterial activity against Staphylococcus aureus 991 assessed as inhibition of bacterial growth incubated for 18 hrs by broth microdilution method
[21] = test system: Staphylococcus aureus; assay: Antibacterial activity against Staphylococcus aureus 6917 assessed as inhibition of bacterial growth incubated for 18 hrs by broth microdilution method

| SMILES | MIC [1] | MIC [2] | MIC [3] | MIC [4] | MIC [5] | MIC [6] | MIC [7] | MIC [8] | MIC [9] | MIC [10] | MIC [11] | MIC [12] | MIC [13] | MIC [14] | MIC [15] | MIC [16] | MIC [17] | MIC [18] | MIC [19] | MIC [20] | other results |
| --- | --- | --- | --- | --- | --- | --- | --- | --- | --- | --- | --- | --- | --- | --- | --- | --- | --- | --- | --- | --- | --- |
| CN[C@H](CC(C)C)C(=O)N[C@H]1C(=O)N[C@@H](CC(N)=O)C(=O)N[C@H]2C(=O)N[C@H]3C(=O)N[C@H](C(=O)N[C@H](C(=O)O)c4cc(O)cc(O)c4-c4cc3ccc4O)[C@H](O)c3ccc(c(Cl)c3)Oc3cc2cc(c3O[C@@H]2O[C@H](CO)[C@@H](O)[C@H](O)[C@H]2O[C@H]2C[C@](C)(N)[C@H](O)[C@H](C)O2)Oc2ccc(cc2Cl)[C@H]1O [VANCOMYCIN] | > 64 µg/mL | 4 µg/mL (≈ 2.76 µM) | > 64 µg/mL | 0.13 µg/mL (≈ 0.0897 µM) | > 64 µg/mL | 0.125 µg/mL (≈ 0.0863 µM) | 0.5 µg/mL (≈ 0.345 µM) | 2 µg/mL (≈ 1.38 µM) | 0.5 µg/mL (≈ 0.345 µM) |  |  |  |  |  |  |  |  |  |  |  |  |
| CCCc1c(Cl)c(OC)c(Cl)c2c1OC(=O)c1c(CCC)c(Cl)c(O)c(Cl)c1O2 | 4 µg/mL (≈ 8.33 µM) | 2 µg/mL (≈ 4.17 µM) | 8 µg/mL (≈ 16.7 µM) | 1 µg/mL (≈ 2.08 µM) | 4 µg/mL (≈ 8.33 µM) | 0.5 µg/mL (≈ 1.04 µM) | 1 µg/mL (≈ 2.08 µM) | 16 µg/mL (≈ 33.3 µM) | 2 µg/mL (≈ 4.17 µM) | 8 µg/mL (≈ 16.7 µM) | 4 µg/mL (≈ 8.33 µM) | 32 µg/mL (≈ 66.6 µM) | 8 µg/mL (≈ 16.7 µM) | 8 µg/mL (≈ 16.7 µM) | 8 µg/mL (≈ 16.7 µM) | 8 µg/mL (≈ 16.7 µM) | 16 µg/mL (≈ 33.3 µM) | 8 µg/mL (≈ 16.7 µM) | 8 µg/mL (≈ 16.7 µM) | 16 µg/mL (≈ 33.3 µM) | MIC [21]: 4 µg/mL (≈ 8.33 µM) |
| CCCc1c(Cl)c(O)c(Cl)c2c1Oc1c(Cl)c(O)c(Cl)c(CCC)c1C(=O)O2 | 4 µg/mL (≈ 8.58 µM) | 2 µg/mL (≈ 4.29 µM) | 4 µg/mL (≈ 8.58 µM) | 2 µg/mL (≈ 4.29 µM) | 8 µg/mL (≈ 17.2 µM) | 0.25 µg/mL (≈ 0.536 µM) | 2 µg/mL (≈ 4.29 µM) | 2 µg/mL (≈ 4.29 µM) | 1 µg/mL (≈ 2.15 µM) | 2 µg/mL (≈ 4.29 µM) | 2 µg/mL (≈ 4.29 µM) | 2 µg/mL (≈ 4.29 µM) | 2 µg/mL (≈ 4.29 µM) | 2 µg/mL (≈ 4.29 µM) | 2 µg/mL (≈ 4.29 µM) | 4 µg/mL (≈ 8.58 µM) | 4 µg/mL (≈ 8.58 µM) | 4 µg/mL (≈ 8.58 µM) | 4 µg/mL (≈ 8.58 µM) | 2 µg/mL (≈ 4.29 µM) | MIC [21]: 8 µg/mL (≈ 17.2 µM) |
| COc1c(Cl)c(O)c(Cl)c2c1C(=O)O[C@H](C)C2 | > 128 µg/mL | > 128 µg/mL | > 128 µg/mL | > 128 µg/mL | > 128 µg/mL | > 128 µg/mL | > 128 µg/mL | > 128 µg/mL | > 128 µg/mL | > 128 µg/mL | > 128 µg/mL | > 128 µg/mL | > 128 µg/mL | > 128 µg/mL | > 128 µg/mL | > 128 µg/mL | > 128 µg/mL | > 128 µg/mL | > 128 µg/mL | > 128 µg/mL | MIC [21]: > 128 µg/mL |
| CCCc1c(Cl)c(OC)cc2c1Oc1c(Cl)c(O)c(Cl)c(CCC)c1C(=O)O2 | 2 µg/mL (≈ 4.49 µM) | 2 µg/mL (≈ 4.49 µM) | 8 µg/mL (≈ 17.9 µM) | 1 µg/mL (≈ 2.24 µM) | 4 µg/mL (≈ 8.97 µM) | 0.5 µg/mL (≈ 1.12 µM) | 0.5 µg/mL (≈ 1.12 µM) | 2 µg/mL (≈ 4.49 µM) | 0.5 µg/mL (≈ 1.12 µM) | 2 µg/mL (≈ 4.49 µM) | 4 µg/mL (≈ 8.97 µM) | 4 µg/mL (≈ 8.97 µM) | 4 µg/mL (≈ 8.97 µM) | 2 µg/mL (≈ 4.49 µM) | 2 µg/mL (≈ 4.49 µM) | 2 µg/mL (≈ 4.49 µM) | 2 µg/mL (≈ 4.49 µM) | 2 µg/mL (≈ 4.49 µM) | 4 µg/mL (≈ 8.97 µM) | 2 µg/mL (≈ 4.49 µM) | MIC [21]: 4 µg/mL (≈ 8.97 µM) |
| CCCc1c(Cl)c(O)cc2c1Oc1cc(O)c(Cl)c(CCC)c1C(=O)O2 | 16 µg/mL (≈ 40.3 µM) | 8 µg/mL (≈ 20.1 µM) | 32 µg/mL (≈ 80.6 µM) | 8 µg/mL (≈ 20.1 µM) | 16 µg/mL (≈ 40.3 µM) | 1 µg/mL (≈ 2.52 µM) | 4 µg/mL (≈ 10.1 µM) | 8 µg/mL (≈ 20.1 µM) | 2 µg/mL (≈ 5.03 µM) | 4 µg/mL (≈ 10.1 µM) | 8 µg/mL (≈ 20.1 µM) | 4 µg/mL (≈ 10.1 µM) | 2 µg/mL (≈ 5.03 µM) | 4 µg/mL (≈ 10.1 µM) | 4 µg/mL (≈ 10.1 µM) | 4 µg/mL (≈ 10.1 µM) | 8 µg/mL (≈ 20.1 µM) | 4 µg/mL (≈ 10.1 µM) | 4 µg/mL (≈ 10.1 µM) | 2 µg/mL (≈ 5.03 µM) | MIC [21]: 8 µg/mL (≈ 20.1 µM) |
